Results as given in patent US5409946A, “Isoxazole, isothiazole and pyrazole compounds that enhance cognitive function” (Abbott Laboratories, priority 1993, dated 1995).
Entries after “also recorded” stand apart in the source; their conditions may differ. Where two headings read alike, the source gives them in different places.

Columns and labels:
[1] = molecular target: neuronal nicotinic receptors; assay: Displacement of [3H]-MCC or [3H]-cytisine from neuronal nicotinic receptors, whole rat brain membranes; format: binding
[2] = molecular target: muscarinic receptors; format: binding, rat; conditions: Table 2
Method: The potencies of ligand binding at central muscarinic binding sites were determined by analysis of competition with the specific muscarinic receptor radioligand [^3 H]-quinuclidinyl benzilate ([^3 H]-QNB). […] Competition between various concentrations of putative nicotinic ligand compounds and 0.2 nM [^3 H]-QNB was performed at 25° C. in an assay volume of 1 mL. After 75 minutes, the bound radioligand was separated by vacuum filtration on Whatman GF/B glass fiber filters. Non-specific binding was defined as radioactivity remaining in the presence of 10 μM atropine. Competition curves were analyzed for Ki values as described above for binding to the nicotinic receptor.

[3] = tested on: neuronal nicotinic cholinergic channels in PC12 cells; assay: Cholinergic channel activator action in PC12 cells, whole-cell patch-clamp; format: cell-based, rat; conditions: PC12 cells; mean ± S.E.M.
Method: Electrophysiologic recordings were obtained from differentiated (neurite-bearing) cells after 4-7 days exposure to NGF. […] After 20 minutes, differentiating medium was added (DMEM containing 100 ng/ml nerve growth factor, 5% heat-inactivated fetal calf serum and 2.5% heat-inactivated horse serum) and the cells were refed with this medium every 3 days.
The intracellular (recording pipette) solution consisted of 140 mM KCl, 1.0 mM CaCl2, 2.0 mM MgCl2, 11 mM K-EGTA, and 10 mM K-HEPES buffer (7.3 pH, 315 mOsm). Osmolarities were adjusted using dextrose such that the extracellular solution was 10 mOsm hypertonic compared to the intracellular solution. Voltage-gated inward (sodium) and outward (potassium) currents were monitored throughout the experiment to determine establishment and maintenance of the whole-cell recording configuration.

[4] = tested on: time spent in the open arms (anxiolytic activity); assay: Mouse elevated plus-maze; format: in vivo, CD1 mice
From the text: The mouse elevated plus-maze is a commonly-used conflict test that probes anxiolytic activity of test compounds (Lister, Psychopharmacology, 1987, 92 180). It is based on the fact that exposure of mice to an elevated open arm leads to an avoidance response considerably stronger than that evoked by exposure to an enclosed arm.
The apparatus required to perform this test is made of plywood and consists of two open arms (17×8 cm) and two enclosed arms (17×8×15 cm) extending from a central platform (8×8 cm). It is mounted on a plywood base rising 39 cm above the floor. Mice are released on the central platform and the time spent in the open and enclosed arms is recorded during a 5 minute test period.
The compound of Example 2 (0.0108-1.08 μmol/kg, i.p.) was administered to CD1 mice (n=12 per group) 15 minutes before the test.

Cc1cc([C@@H]2CCCN2C)on1.O=C(O)C(=O)O [Example 2, 3-Methyl-5-(1-methyl-2(S)-pyrrolidinyl)-isoxazole oxalate salt]
Ki ([1]; Table 1, oxalate salt, read-out: Nicotinic Receptor Ki): 0.005 µM | Ki ([1]; Table 2, read-out: Nicotinic Ki): 0.005 µM | Ki [2]: 160 µM | EC50 [3]: 209 ± 76 µM | Elevated Plus-Maze (EPM) doses with significant effect ([4]; i.p., p<0.05): 0.036 to 1.08 µmol/kg | Elevated Plus-Maze (EPM) result ([4]; i.p., time in open arms, p<0.05, oxalate salt): clear anxiolytic response; also recorded: significant | anxiolytic potency relative to (-)-nicotine ([4]; more potent than (-)-nicotine): at least 10 fold
